Laboratory results from the supplement of paper PMC10307832.

Columns and labels:
Test in all cases: relative viability (nuclei count vs DMSO), 5 days (fraction); higher = more cells survive
A-427 = tested on: A-427
Procedure, shortened: (§1)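 For relative viability, nuclei counts in treated wells were divided by those in vehicle wells. Lung cancer cell lines had been pin-tool dosed in 1536-well plates the day after seeding and cultured for 5 days, then fixed and stained in one step (final 0.05% Triton X-100, 1% formaldehyde, 1 ug/ml Hoechst) and imaged at 4×. Doses were one drug alone or a fixed anchor-drug dose plus five library-drug doses (not always all listed) in √10 steps, and values are duplicate-plate medians.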

NCI-H650 = tested on: NCI-H650
Procedure, shortened: as §1

NCI-H1650 = tested on: NCI-H1650
Procedure, shortened: as §1

201T = tested on: 201T
Procedure, shortened: as §1

NCI-H358 = tested on: NCI-H358
Procedure, shortened: as §1

COR-L23 = tested on: COR-L23
Procedure, shortened: as §1

SK-MES-1 = tested on: SK-MES-1
Procedure, shortened: as §1

BEN = tested on: BEN
Procedure, shortened: as §1

NCI-H2342 = tested on: NCI-H2342
Procedure, shortened: as §1

HCC-44 = tested on: HCC-44
Procedure, shortened: as §1

NCI-H1975 = tested on: NCI-H1975
Procedure, shortened: as §1

EKVX = tested on: EKVX
Procedure, shortened: as §1

NCI-H1437 = tested on: NCI-H1437
Procedure, shortened: as §1

HCC-15 = tested on: HCC-15
Procedure, shortened: as §1

NCI-H441 = tested on: NCI-H441
Procedure, shortened: as §1

NCI-H838 = tested on: NCI-H838
Procedure, shortened: as §1

SW 900 = tested on: SW 900
Procedure, shortened: as §1

NCI-H23 = tested on: NCI-H23
Procedure, shortened: as §1

HARA = tested on: HARA
Procedure, shortened: as §1

HCC-827 = tested on: HCC-827
Procedure, shortened: as §1

NCI-H1666 = tested on: NCI-H1666
Procedure, shortened: as §1

NCI-H596 = tested on: NCI-H596
Procedure, shortened: as §1

O=c1cc(N2CCOCC2)oc2c(-c3cccc4c3sc3ccccc34)cccc12 + Cc1cc(Nc2cc(N3CCN(C)CC3)nc(Sc3ccc(NC(=O)C4CC4)cc3)n2)n[nH]1 [Tozasertib] (partner 0.1 µM) was tested, and the relative viability (A-427; first compound 0.01 µM) was 0.232, the relative viability (A-427; first compound 0.03162 µM) was 0.201 and the relative viability (A-427; first compound 0.1 µM) was 0.212. The relative viability (A-427; first compound 0.3162 µM) was 0.223, the relative viability (A-427; first compound 1 µM) was 0.212 and the relative viability (NCI-H650; first compound 0.03162 µM) was 0.763. For the same molecule, the relative viability (NCI-H650; first compound 0.1 µM) was 0.701, the relative viability (NCI-H650; first compound 0.3162 µM) was 0.803 and the relative viability (NCI-H650; first compound 1 µM) was 0.704. The relative viability (NCI-H1650; first compound 0.01 µM) was 0.383, the relative viability (NCI-H1650; first compound 0.03162 µM) was 0.416 and the relative viability (NCI-H1650; first compound 0.1 µM) was 0.392. It also gave a relative viability (NCI-H1650; first compound 0.3162 µM) of 0.373, a relative viability (NCI-H1650; first compound 1 µM) of 0.352 and a relative viability (201T; first compound 0.01 µM) of 0.93. The relative viability (201T; first compound 0.03162 µM) was 0.916, the relative viability (201T; first compound 0.1 µM) was 0.983 and the relative viability (201T; first compound 0.3162 µM) was 0.883. It also gave a relative viability (201T; first compound 1 µM) of 0.881, a relative viability (NCI-H358; first compound 0.01 µM) of 0.113 and a relative viability (NCI-H358; first compound 0.03162 µM) of 0.102. For the same molecule, the relative viability (NCI-H358; first compound 0.1 µM) was 0.115, the relative viability (NCI-H358; first compound 0.3162 µM) was 0.0946 and the relative viability (NCI-H358; first compound 1 µM) was 0.101. For the same molecule, the relative viability (COR-L23; first compound 0.01 µM) was 0.213, the relative viability (COR-L23; first compound 0.03162 µM) was 0.231 and the relative viability (COR-L23; first compound 0.1 µM) was 0.18. It also gave a relative viability (COR-L23; first compound 0.3162 µM) of 0.234, a relative viability (COR-L23; first compound 1 µM) of 0.225 and a relative viability (SK-MES-1; first compound 0.01 µM) of 0.964. The relative viability (SK-MES-1; first compound 0.03162 µM) was 0.935, the relative viability (SK-MES-1; first compound 0.1 µM) was 1.05 and the relative viability (SK-MES-1; first compound 0.3162 µM) was 0.897. For the same molecule, the relative viability (SK-MES-1; first compound 1 µM) was 0.875, the relative viability (BEN; first compound 0.01 µM) was 0.487 and the relative viability (BEN; first compound 0.03162 µM) was 0.469. It also gave a relative viability (BEN; first compound 0.1 µM) of 0.482, a relative viability (BEN; first compound 0.3162 µM) of 0.463 and a relative viability (BEN; first compound 1 µM) of 0.531. It also gave a relative viability (NCI-H2342; first compound 0.01 µM) of 0.643, a relative viability (NCI-H2342; first compound 0.03162 µM) of 0.504 and a relative viability (NCI-H2342; first compound 0.1 µM) of 0.535. The relative viability (NCI-H2342; first compound 0.3162 µM) was 0.555, the relative viability (NCI-H2342; first compound 1 µM) was 0.469 and the relative viability (HCC-44; first compound 0.01 µM) was 0.846. The relative viability (HCC-44; first compound 0.03162 µM) was 1.05, the relative viability (HCC-44; first compound 0.1 µM) was 1.12 and the relative viability (HCC-44; first compound 0.3162 µM) was 0.876. It also gave a relative viability (HCC-44; first compound 1 µM) of 0.91, a relative viability (NCI-H1975; first compound 0.01 µM) of 0.692 and a relative viability (NCI-H1975; first compound 0.03162 µM) of 0.657. It also gave a relative viability (NCI-H1975; first compound 0.1 µM) of 0.958, a relative viability (NCI-H1975; first compound 0.3162 µM) of 0.746 and a relative viability (NCI-H1975; first compound 1 µM) of 0.76. The relative viability (EKVX; first compound 0.01 µM) was 0.448, the relative viability (EKVX; first compound 0.03162 µM) was 0.332 and the relative viability (EKVX; first compound 0.1 µM) was 0.441. The relative viability (EKVX; first compound 0.3162 µM) was 0.343, the relative viability (EKVX; first compound 1 µM) was 0.36 and the relative viability (NCI-H1437; first compound 0.01 µM) was 0.351. For the same molecule, the relative viability (NCI-H1437; first compound 0.03162 µM) was 0.406, the relative viability (NCI-H1437; first compound 0.1 µM) was 0.428 and the relative viability (NCI-H1437; first compound 0.3162 µM) was 0.431. For the same molecule, the relative viability (NCI-H1437; first compound 1 µM) was 0.373, the relative viability (HCC-15; first compound 0.01 µM) was 0.413 and the relative viability (HCC-15; first compound 0.03162 µM) was 0.379. The relative viability (HCC-15; first compound 0.1 µM) was 0.433, the relative viability (HCC-15; first compound 0.3162 µM) was 0.33 and the relative viability (HCC-15; first compound 1 µM) was 0.448. For the same molecule, the relative viability (NCI-H441; first compound 0.01 µM) was 0.671, the relative viability (NCI-H441; first compound 0.03162 µM) was 0.713 and the relative viability (NCI-H441; first compound 0.1 µM) was 0.692. The relative viability (NCI-H441; first compound 0.3162 µM) was 0.658, the relative viability (NCI-H441; first compound 1 µM) was 0.719 and the relative viability (NCI-H838; first compound 0.01 µM) was 0.246. It also gave a relative viability (NCI-H838; first compound 0.03162 µM) of 0.273, a relative viability (NCI-H838; first compound 0.1 µM) of 0.27 and a relative viability (NCI-H838; first compound 0.3162 µM) of 0.298. For the same molecule, the relative viability (NCI-H838; first compound 1 µM) was 0.237, the relative viability (SW 900; first compound 0.01 µM) was 0.505 and the relative viability (SW 900; first compound 0.03162 µM) was 0.651. For the same molecule, the relative viability (SW 900; first compound 0.1 µM) was 0.656, the relative viability (SW 900; first compound 0.3162 µM) was 0.574 and the relative viability (SW 900; first compound 1 µM) was 0.548. For the same molecule, the relative viability (NCI-H23; first compound 0.01 µM) was 0.363, the relative viability (NCI-H23; first compound 0.03162 µM) was 0.391 and the relative viability (NCI-H23; first compound 0.3162 µM) was 0.31. The relative viability (NCI-H23; first compound 1 µM) was 0.351, the relative viability (HARA; first compound 0.01 µM) was 0.139 and the relative viability (HARA; first compound 0.03162 µM) was 0.139. It also gave a relative viability (HARA; first compound 0.1 µM) of 0.477, a relative viability (HARA; first compound 0.3162 µM) of 0.103 and a relative viability (HARA; first compound 1 µM) of 0.128. The relative viability (HCC-827; first compound 0.01 µM) was 0.386, the relative viability (HCC-827; first compound 0.03162 µM) was 0.435 and the relative viability (HCC-827; first compound 0.1 µM) was 0.431. It also gave a relative viability (HCC-827; first compound 0.3162 µM) of 0.426, a relative viability (HCC-827; first compound 1 µM) of 0.389 and a relative viability (NCI-H1666; first compound 0.01 µM) of 0.512. It also gave a relative viability (NCI-H1666; first compound 0.03162 µM) of 0.56, a relative viability (NCI-H1666; first compound 0.1 µM) of 0.579 and a relative viability (NCI-H1666; first compound 0.3162 µM) of 0.596. The relative viability (NCI-H1666; first compound 1 µM) was 0.567, the relative viability (NCI-H596; first compound 0.01 µM) was 0.834 and the relative viability (NCI-H596; first compound 0.03162 µM) was 0.939. It also gave a relative viability (NCI-H596; first compound 0.1 µM) of 0.921, a relative viability (NCI-H596; first compound 0.3162 µM) of 0.865 and a relative viability (NCI-H596; first compound 1 µM) of 1.03.
